According to US20180119123A1, “CRISPR/CAS-RELATED METHODS AND COMPOSITIONS FOR TREATING HIV INFECTION AND AIDS” (EDITAS MEDICINE, INC., priority 2015, published 2018):
Entries after “also recorded” stand apart in the source; their conditions may differ.

Tested on: CXCR4 locus
Assay: T7E1 assay for indels/NHEJ at the CXCR4 locus in Nucleofected CD34+ HSCs
Assay type: cell-based, human
Settings: 40 nM UM171; S. aureus or S. pyogenes Cas9 and CXCR4 gRNA plasmids; 96 hours
Method: For the T7E1 assay, PCR amplicons are approximately 500-700 bp with the intended cut site placed asymmetrically in the amplicon. Following amplification, purification and size-verification of PCR products, DNA is denatured and re-hybridized by heating to 95° C. and then slowly cooling. Hybridized PCR products are then digested with T7 Endonuclease I (or other mismatch-sensitive enzyme) which recognizes and cleaves non-perfectly matched DNA. […] Digestion products may be visualized by gel electrophoresis or by capillary electrophoresis. The fraction of DNA that is cleaved (density of cleavage products divided by the density of cleaved and uncleaved) may be used to estimate a percent NHEJ using the following equation: % NHEJ=(1-(1-fraction cleaved)^1/2). The T7E1 assay is sensitive down to about 2-5% NHEJ.
Human CD34^+ HSCs cells from mobilized peripheral blood (AllCells) were thawed into StemSpan Serum-Free Expansion Medium (SFEM, StemCell Technologies) containing 100 ng/mL each of the following cytokines: human stem cell factor (SCF), thrombopoietin (TPO), and flt-3 ligand (FL) (all from Peprotech). […]
In order to detect indels at the CXCR4 locus, T7E1 assays were performed on CXCR4 locus-specific PCR products that were amplified from genomic DNA samples from Nucleofected™ CD34^+ HSCs and then calculated the percentage of NHEJ detected at the CXCR4 locus (FIG. 11B).

Cn1nnc(-c2ccc3c(c2)[nH]c2nc(Cc4ccccc4)nc(N[C@H]4CC[C@H](N)CC4)c23)n1 [UM171, (1r,4r)-N1-(2-benzyl-7-(2-methyl-2H-tetrazol-5-yl)-9H-pyrimido[4,5-b]indol-4-yl)cyclohexane-1,4-diamine]
Percentage of genome editing at the CXCR4 locus with UM171 pre-treatment versus without: higher percentage of genome editing at the CXCR4 locus; also recorded: increased genome editing at the CXCR4 locus
